Data taken from ChEMBL document CHEMBL1909046, “DrugMatrix in vitro pharmacology data”.

Tests used:
[1] = target: T1, Endothelin-1 receptor (Homo sapiens, UniProt P25101); assay type: cell membranes, Membrane; conditions: cho-k1; note: in other assays of this panel Not Active means under 50% inhibition at 10 µM
T1 sequence (P25101 whole entry): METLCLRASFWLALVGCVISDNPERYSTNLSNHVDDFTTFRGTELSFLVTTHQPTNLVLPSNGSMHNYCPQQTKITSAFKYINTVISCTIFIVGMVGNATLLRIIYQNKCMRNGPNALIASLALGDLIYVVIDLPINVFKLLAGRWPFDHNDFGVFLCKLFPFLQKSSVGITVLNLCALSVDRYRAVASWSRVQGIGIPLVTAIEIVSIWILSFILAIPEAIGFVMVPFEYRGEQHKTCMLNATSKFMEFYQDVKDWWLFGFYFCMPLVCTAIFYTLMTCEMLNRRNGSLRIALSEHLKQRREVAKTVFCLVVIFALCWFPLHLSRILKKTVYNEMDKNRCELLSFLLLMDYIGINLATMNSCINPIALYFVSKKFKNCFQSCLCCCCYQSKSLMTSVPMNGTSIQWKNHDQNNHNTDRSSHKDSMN

[2] = DRUGMATRIX: GABAA, Muscimol, Central radioligand binding (ligand: [3H] Muscimol); assay type: cell membranes, Rattus norvegicus, Wistar, Brain, Membrane; conditions: Not Active = under 50% inhibition at 10 µM
[3] = target: T2, Angiotensin-converting enzyme (Oryctolagus cuniculus, UniProt P12822); experiment: biochemical; assay type: tissue-based, Lung;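 note: enzymatic inhibition of angiotensin-converting enzyme measured with FAPGG as the substrate; in other assays of this panel Not Active means under 50% inhibition at 10 µM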
T2 sequence (P12822 whole entry): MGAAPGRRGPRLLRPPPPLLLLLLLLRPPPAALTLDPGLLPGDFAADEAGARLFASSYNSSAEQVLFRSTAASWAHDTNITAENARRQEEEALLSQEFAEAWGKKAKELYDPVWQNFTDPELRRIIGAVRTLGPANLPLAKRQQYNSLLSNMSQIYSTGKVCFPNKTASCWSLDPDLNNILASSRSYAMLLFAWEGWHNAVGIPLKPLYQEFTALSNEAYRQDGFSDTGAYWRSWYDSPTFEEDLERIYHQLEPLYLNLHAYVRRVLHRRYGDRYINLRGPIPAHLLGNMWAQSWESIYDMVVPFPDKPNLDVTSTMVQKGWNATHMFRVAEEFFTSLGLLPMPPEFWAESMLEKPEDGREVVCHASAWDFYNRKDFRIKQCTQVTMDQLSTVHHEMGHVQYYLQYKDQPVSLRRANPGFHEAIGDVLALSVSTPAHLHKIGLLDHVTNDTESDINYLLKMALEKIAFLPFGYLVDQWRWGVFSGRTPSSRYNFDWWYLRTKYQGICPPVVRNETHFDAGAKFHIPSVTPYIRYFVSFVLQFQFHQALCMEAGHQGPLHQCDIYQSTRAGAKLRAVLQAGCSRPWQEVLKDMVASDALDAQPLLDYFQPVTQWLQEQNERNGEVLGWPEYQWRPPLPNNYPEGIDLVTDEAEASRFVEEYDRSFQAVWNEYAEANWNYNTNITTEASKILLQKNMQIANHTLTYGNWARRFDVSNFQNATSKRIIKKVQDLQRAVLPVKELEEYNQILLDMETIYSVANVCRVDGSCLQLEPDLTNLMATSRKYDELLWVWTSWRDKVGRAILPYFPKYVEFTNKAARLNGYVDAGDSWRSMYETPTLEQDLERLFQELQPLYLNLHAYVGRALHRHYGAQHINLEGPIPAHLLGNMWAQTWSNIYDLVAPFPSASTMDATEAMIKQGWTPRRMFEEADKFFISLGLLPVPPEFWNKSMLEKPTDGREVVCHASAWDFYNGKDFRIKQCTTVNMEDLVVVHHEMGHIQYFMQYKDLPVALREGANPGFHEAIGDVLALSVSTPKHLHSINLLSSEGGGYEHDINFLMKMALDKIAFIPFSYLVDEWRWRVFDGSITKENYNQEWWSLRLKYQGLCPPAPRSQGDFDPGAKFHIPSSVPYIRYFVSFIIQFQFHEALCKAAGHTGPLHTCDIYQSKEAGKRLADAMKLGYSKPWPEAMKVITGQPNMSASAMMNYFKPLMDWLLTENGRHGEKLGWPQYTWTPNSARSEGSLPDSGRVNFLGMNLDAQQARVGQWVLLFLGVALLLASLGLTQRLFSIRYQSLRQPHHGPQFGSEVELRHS

[4] = target: T3, Calcitonin receptor (Homo sapiens, UniProt P30988); assay type: cell membranes, Membrane; conditions: t47d; note: in other assays of this panel Not Active means under 50% inhibition at 10 µM
T3 sequence (P30988 whole entry): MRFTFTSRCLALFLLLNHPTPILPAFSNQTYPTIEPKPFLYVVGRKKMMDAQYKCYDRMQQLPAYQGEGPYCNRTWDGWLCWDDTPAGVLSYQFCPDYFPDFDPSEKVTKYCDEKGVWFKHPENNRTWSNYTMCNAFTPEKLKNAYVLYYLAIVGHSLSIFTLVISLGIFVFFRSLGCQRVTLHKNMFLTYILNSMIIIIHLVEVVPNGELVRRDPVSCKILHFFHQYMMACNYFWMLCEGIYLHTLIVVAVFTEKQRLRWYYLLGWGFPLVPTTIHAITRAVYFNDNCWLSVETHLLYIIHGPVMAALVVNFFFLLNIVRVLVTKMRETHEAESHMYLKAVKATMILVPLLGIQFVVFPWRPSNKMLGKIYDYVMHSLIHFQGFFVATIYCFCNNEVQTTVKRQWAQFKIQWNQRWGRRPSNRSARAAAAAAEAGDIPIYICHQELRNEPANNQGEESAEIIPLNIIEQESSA

[5] = target: T4, Adenosine receptor A1 (Homo sapiens, UniProt P30542); assay type: cell membranes, CHO, Membrane; conditions: cho;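 note: radioligand binding assay at the adenosine A1 receptor, with DPCPX serving as the labelled ligand; in other assays of this panel Not Active means under 50% inhibition at 10 µM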
T4 sequence (P30542 whole entry): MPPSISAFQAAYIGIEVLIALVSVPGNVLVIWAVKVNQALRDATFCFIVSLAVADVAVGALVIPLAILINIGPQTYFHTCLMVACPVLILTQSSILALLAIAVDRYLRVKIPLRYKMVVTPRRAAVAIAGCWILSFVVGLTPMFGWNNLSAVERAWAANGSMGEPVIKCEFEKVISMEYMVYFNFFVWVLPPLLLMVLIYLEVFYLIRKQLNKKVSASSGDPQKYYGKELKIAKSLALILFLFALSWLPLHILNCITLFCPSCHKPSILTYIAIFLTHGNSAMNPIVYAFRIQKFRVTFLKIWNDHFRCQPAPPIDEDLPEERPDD

CN1C[C@H](C(=O)N[C@]2(C)O[C@@]3(O)[C@@H]4CCCN4C(=O)[C@H](Cc4ccccc4)N3C2=O)C=C2c3cccc4[nH]cc(c34)C[C@H]21 [ERGOTAMINE]
Not Active: IC50 [1] | IC50 [2] | Ki [2] | IC50 [3] | IC50 [4] | IC50 [5]

CCc1cccc2c3c([nH]c12)C(CC)(CC(=O)O)OCC3 (stereo unspecified) [ETODOLAC]
Not Active: IC50 [1] | IC50 [2] | Ki [2] | IC50 [3] | IC50 [4] | IC50 [5]

Cc1c(-c2ccccc2)oc2c(C(=O)OCCN3CCCCC3)cccc2c1=O [FLAVOXATE]
Not Active: IC50 [1] | IC50 [2] | Ki [2] | IC50 [3] | IC50 [4] | IC50 [5]

Nc1nc(=O)[nH]cc1F [FLUCYTOSINE]
Not Active: IC50 [1] | IC50 [2] | Ki [2] | IC50 [3] | IC50 [4] | IC50 [5]

O=C1OC2(c3ccc(O)cc3Oc3cc(O)ccc32)c2ccccc21 [FLUORESCEIN]
Not Active: IC50 [1] | IC50 [2] | Ki [2] | IC50 [3] | IC50 [4] | IC50 [5]

CC(=O)[C@@]1(O)CC[C@H]2[C@@H]3C[C@H](C)C4=CC(=O)C=C[C@]4(C)[C@@]3(F)[C@@H](O)C[C@@]21C [FLUOROMETHOLONE]
Not Active: IC50 [1] | IC50 [2] | Ki [2] | IC50 [3] | IC50 [4] | IC50 [5]

O=c1[nH]cc(F)c(=O)[nH]1 [FLUOROURACIL]
Not Active: IC50 [1] | IC50 [2] | Ki [2] | IC50 [3] | IC50 [4] | IC50 [5]

CC(C)n1c(/C=C/C(O)CC(O)CC(=O)O)c(-c2ccc(F)cc2)c2ccccc21 (stereo unspecified) [FLUVASTATIN]
Not Active: IC50 [1] | IC50 [2] | Ki [2] | IC50 [3] | IC50 [4] | IC50 [5]

O=C1OCCN1/N=C/c1ccc([N+](=O)[O-])o1 [FURAZOLIDONE]
Not Active: IC50 [1] | IC50 [2] | Ki [2] | IC50 [3] | IC50 [4] | IC50 [5]

NCC1(CC(=O)O)CCCCC1 [GABAPENTIN]
Not Active: IC50 [1] | IC50 [2] | Ki [2] | IC50 [3] | IC50 [4] | IC50 [5]

CC[N+](CC)(CC)CCOc1cccc(OCC[N+](CC)(CC)CC)c1OCC[N+](CC)(CC)CC.[I-].[I-].[I-] [GALLAMINE TRIETHIODIDE]
Not Active: IC50 [1] | IC50 [2] | Ki [2] | IC50 [3] | IC50 [4] | IC50 [5]

Nc1nc2c(ncn2COC(CO)CO)c(=O)[nH]1 [GANCICLOVIR]
Not Active: IC50 [1] | IC50 [2] | Ki [2] | IC50 [3] | IC50 [4] | IC50 [5]

COc1c(N2CCNC(C)C2)c(F)cc2c(=O)c(C(=O)O)cn(C3CC3)c12 (stereo unspecified) [GATIFLOXACIN]
Not Active: IC50 [1] | IC50 [2] | Ki [2] | IC50 [3] | IC50 [4] | IC50 [5]

NCC(=O)O [GLYCINE]
Not Active: IC50 [1] | IC50 [2] | Ki [2] | IC50 [3] | IC50 [4] | IC50 [5]

CC1(C)[C@@H](O[C@H]2O[C@H](C(=O)O)[C@@H](O)[C@H](O)[C@H]2O[C@@H]2O[C@H](C(=O)O)[C@@H](O)[C@H](O)[C@H]2O)CC[C@]2(C)[C@H]3C(=O)C=C4[C@@H]5C[C@@](C)(C(=O)O)CC[C@]5(C)CC[C@@]4(C)[C@]3(C)CC[C@@H]12 [GLYCYRRHIZIN]
Not Active: IC50 [1] | IC50 [2] | Ki [2] | IC50 [3] | IC50 [4] | IC50 [5]

COC1=CC(=O)C[C@@H](C)[C@]12Oc1c(Cl)c(OC)cc(OC)c1C2=O [GRISEOFULVIN]
Not Active: IC50 [1] | IC50 [2] | Ki [2] | IC50 [3] | IC50 [4] | IC50 [5]
